Measured values: US20260347338A1, “PYRIMIDINE/PYRIDINE DERIVATIVES OR SALTS THEREOF AND PHARMACEUTICAL COMPOSITIONS COMPRISING THE SAME” (YUHAN CORPORATION, priority 2023, published 2026)
Where a name gives a salt, the structure may show the parent alone.

Molecular target: T1, human recombinant HPK1 (Homo sapiens, UniProt Q92918)
T1 construct: purchased BPS Bioscience
Assay: Inhibitory activity against human recombinant HPK1 (TR-FRET)
Type: biochemical
Conditions: ULight-p70S6K peptide, ATP at Km, room temperature, 1 hour, 0.32 to 1000 nM compound
How it was run: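 IC50 classes A–D use 10, 50 and 100 nM cut-offs, derived from TR-FRET signal inhibition relative to DMSO controls. Human recombinant HPK1 phosphorylated ULight-p70S6K peptide at Km ATP for 1 h, room temperature, pH 7.4; test range 0.32–1000 nM final, detection with Eu-labelled antibody after EDTA quench.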

T1 sequence (Q92918 whole entry): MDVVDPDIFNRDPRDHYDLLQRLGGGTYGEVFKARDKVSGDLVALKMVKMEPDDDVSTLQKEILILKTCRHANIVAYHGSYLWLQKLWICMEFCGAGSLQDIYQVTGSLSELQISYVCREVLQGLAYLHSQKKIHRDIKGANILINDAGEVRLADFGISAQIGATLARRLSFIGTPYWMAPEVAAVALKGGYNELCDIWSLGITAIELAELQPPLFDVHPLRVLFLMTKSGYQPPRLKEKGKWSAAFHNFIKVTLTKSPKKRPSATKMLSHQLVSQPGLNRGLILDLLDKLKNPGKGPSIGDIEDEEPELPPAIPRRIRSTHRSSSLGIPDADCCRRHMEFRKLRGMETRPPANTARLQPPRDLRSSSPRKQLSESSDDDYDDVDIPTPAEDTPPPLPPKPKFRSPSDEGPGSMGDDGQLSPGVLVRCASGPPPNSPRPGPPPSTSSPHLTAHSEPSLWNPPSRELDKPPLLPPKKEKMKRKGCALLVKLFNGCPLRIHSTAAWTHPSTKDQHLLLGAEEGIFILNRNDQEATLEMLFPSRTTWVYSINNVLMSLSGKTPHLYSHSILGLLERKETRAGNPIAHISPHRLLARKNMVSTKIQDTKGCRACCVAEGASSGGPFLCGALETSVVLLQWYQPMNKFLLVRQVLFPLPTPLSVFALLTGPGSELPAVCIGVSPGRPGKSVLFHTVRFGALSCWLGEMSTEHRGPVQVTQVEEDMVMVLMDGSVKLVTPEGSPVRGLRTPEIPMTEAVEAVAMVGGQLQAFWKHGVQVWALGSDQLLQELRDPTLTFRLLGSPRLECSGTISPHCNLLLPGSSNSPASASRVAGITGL

IC50 [nM]	Compound
≤ 10	COc1cccc(F)c1-c1nccc(Nc2cc(N3CC[C@@H](C)[C@H](N)C3)c(-c3cnn(C(F)F)c3)cn2)n1 [Example 204, N-(4-((3S,4R)-3-amino-4-methylpiperidin-1-yl)-5-(1-(difluoromethyl)-1H-pyrazol-4-yl)pyridin-2-yl)-2-(2-fluoro-6-methoxyphenyl)pyrimidin-4-amine hydrochloride]
> 100	COc1cccc(F)c1-c1nc(Nc2cc(N3CCC[C@H](O)C3)c(-c3cnn(C(F)F)c3)cn2)ccc1C(=O)N(C)C [Example 141, 6-((5-(1-(difluoromethyl)-1H-pyrazol-4-yl)-4-((S)-3-hydroxypiperidin-1-yl)pyridin-2-yl)amino)-2-(2-fluoro-6-methoxyphenyl)-N,N-dimethylnicotinamide]
≤ 10	COc1cccc(F)c1-c1nc(Nc2cc(N3CCC[C@H](O)C3)c(-c3cnn(C(F)F)c3)cn2)ccc1[N+](=O)[O-] [Example 145, (3S)-1-(5-(1-(difluoromethyl)-1H-pyrazol-4-yl)-2-((6-(2-fluoro-6-methoxyphenyl)-5-nitropyridin-2-yl)amino)pyridin-4-yl)piperidin-3-ol]
≤ 10	COc1cccc(F)c1-c1nccc(Nc2cc(N3CCC[C@H](N)C3)c(-c3ccc4c(c3)OCC(=O)N4C)cn2)n1 [Example 261, (S)-7-(4-(3-aminopiperidin-1-yl)-6-((2-(2-fluoro-6-methoxyphenyl)pyrimidin-4-yl)amino)pyridin-3-yl)-4-methyl-2H-benzo[b][1,4]oxazin-3(4H)-one hydrochloride]
10 to 50	COc1cccc(F)c1-c1nccc(Nc2cc(N3CCCC(C(N)=O)C3)c(-c3cnn(C4CCOCC4)c3)cn2)n1 (centres unmarked) [Example 34, 1-(2-((2-(2-fluoro-6-methoxyphenyl)pyrimidin-4-yl)amino)-5-(1-(tetrahydro-2H-pyran-4-yl)-1H-pyrazol-4-yl)pyridin-4-yl)piperidin-3-carboxamide]
≤ 10	COc1cccc(F)c1-c1nccc(Nc2cc(N3CCC[C@H](N)C3)c(-c3ccc(C(=O)N4CCOCC4)cc3)cn2)n1 [Example 255, (S)-(4-(4-(3-aminopiperidin-1-yl)-6-((2-(2-fluoro-6-methoxyphenyl)pyrimidin-4-yl)amino)pyridin-3-yl)phenyl)(morpholino)methanone hydrochloride]
≤ 10	CCNC(=O)Nc1ccc(-c2cnc(Nc3ccnc(-c4c(F)cccc4OC)n3)cc2N2CCC[C@H](N)C2)cn1 [Example 250, (S)-1-(4′-(3-aminopiperidin-1-yl)-6′-((2-(2-fluoro-6-methoxyphenyl)pyrimidin-4-yl)amino)-[3,3′-bipyridin]-6-yl)-3-ethylurea hydrochloride]
≤ 10	COc1cc(F)cc(F)c1-c1nc(Nc2cc(N3CCC[C@H](O)C3)c(-c3cnn(CC(F)(F)F)c3)cn2)ccc1C#N [Example 317, 2-(2,4-difluoro-6-methoxyphenyl)-6-((4-((S)-3-hydroxypiperidin-1-yl)-5-(1-(2,2,2-trifluoroethyl)-1H-pyrazol-4-yl)pyridin-2-yl)amino)nicotinonitrile]
≤ 10	COc1cccc(F)c1-c1nccc(Nc2cc(N3CCC[C@H](N)C3)c(-c3cnn([C@H]4CCOC4)c3)cn2)n1 [Example 298, N-(4-((S)-3-aminopiperidin-1-yl)-5-(1-((S)-tetrahydrofuran-3-yl)-1H-pyrazol-4-yl)pyridin-2-yl)-2-(2-fluoro-6-methoxyphenyl)pyrimidin-4-amine hydrochloride]
≤ 10	COc1cccc(F)c1-c1nccc(Nc2cc(N3CCC[C@H](N)C3)c(-c3cc(C)c(OC(C)C)c(C)c3)cn2)n1 [Example 284, (S)-N-(4-(3-aminopiperidin-1-yl)-5-(4-isopropoxy-3,5-dimethylphenyl)pyridin-2-yl)-2-(2-fluoro-6-methoxyphenyl)pyrimidin-4-amine hydrochloride]
≤ 10	COc1cccc(F)c1-c1nc(Nc2cc(N3CCC[C@H](N)C3)c(-c3cnn(CC(C)(C)O)c3)cn2)ccc1C#N [Example 319, 6-((4-((S)-3-aminopiperidin-1-yl)-5-(1-(2-hydroxy-2-methylpropyl)-1H-pyrazol-4-yl)pyridin-2-yl)amino)-2-(2-fluoro-6-methoxyphenyl)nicotinonitrile hydrochloride]
≤ 10	COc1cc(C(=O)N2CC[C@@H](F)C2)cc(F)c1-c1nccc(Nc2cc(N3CCC[C@H](N)C3)c(-c3cnn(C(F)F)c3)cn2)n1 [Example 251, (4-(4-((4-((S)-3-aminopiperidin-1-yl)-5-(1-(difluoromethyl)-1H-pyrazol-4-yl)pyridin-2-yl)amino)pyrimidin-2-yl)-3-fluoro-5-methoxyphenyl)((R)-3-fluoropyrrolidin-1-yl)methanone]
50 to 100	COc1cncc(-c2nccc(Nc3cc(N4CCC[C@H](O)C4)c(C(=O)C4CC4)cn3)n2)c1 [Example 3, (S)-cyclopropyl(4-(3-hydroxypiperidin-1-yl)-6-((2-(5-methoxypyridin-3-yl)pyrimidin-4-yl)amino)pyridin-3-yl)methanone]
≤ 10	COc1cc(F)cc(F)c1-c1nccc(Nc2cc(N3CCC[C@H](O)C3)c(-c3cnn(CC(F)F)c3)cn2)n1 [Example 172, (S)-1-(2-((2-(2,4-difluoro-6-methoxyphenyl)pyrimidin-4-yl)amino)-5-(1-(2,2-difluoroethyl)-1H-pyrazol-4-yl)pyridin-4-yl)piperidin-3-ol]
≤ 10	COc1cccc(F)c1-c1nccc(Nc2cc(N3CCC[C@H](N)C3)c(-c3ccc(C(=O)N4CCN(C)CC4)cc3)cn2)n1 [Example 176, (S)-(4-(4-(3-aminopiperidin-1-yl)-6-((2-(2-fluoro-6-methoxyphenyl)pyrimidin-4-yl)amino)pyridin-3-yl)phenyl)(4-methylpiperazin-1-yl)methanone hydrochloride]
≤ 10	COc1cccc(F)c1-c1nccc(Nc2cc(N3CCC[C@H](N)C3)c(-c3ccc(C(=O)N4CCNCC4)cc3)cn2)n1 [Example 265, (S)-(4-(4-(3-aminopiperidin-1-yl)-6-((2-(2-fluoro-6-methoxyphenyl)pyrimidin-4-yl)amino)pyridin-3-yl)phenyl)(piperazin-1-yl)methanone hydrochloride]
≤ 10	COc1cccc(F)c1-c1nccc(Nc2cc(N3CCC[C@H](N)C3)c(-c3cnn(C4CCOCC4)c3)cn2)n1 [Example 52, (S)-N-(4-(3-aminopiperidin-1-yl)-5-(1-(tetrahydro-2H-pyran-4-yl)-1H-pyrazol-4-yl)pyridin-2-yl)-2-(2-fluoro-6-methoxyphenyl)pyrimidin-4-amine hydrochloride]
≤ 10	COc1cccc(F)c1-c1nccc(Nc2cc(N3CCC[C@H](O)C3)c(C#CC3CCOCC3)cn2)n1 [Example 11, (S)-1-(2-((2-(2-fluoro-6-methoxyphenyl)pyrimidin-4-yl)amino)-5-((tetrahydro-2H-pyran-4-yl)ethynyl)pyridin-4-yl)piperidin-3-ol]
≤ 10	(S)-N-(4-(3-aminopiperidin-1-yl)-5-((tetrahydro-2H-pyran-4-yl)ethynyl)pyridin-2-yl)-2-(7-fluoroquinoxalin-6-yl)pyrimidin-4-amine hydrochloride [Example 90]
≤ 10	COc1cccc(F)c1-c1nccc(Nc2cc(N3CCC[C@@H](N)C3)c(-c3cnn(CC(F)(F)F)c3)cn2)n1 [Example 77, (R)-N-(4-(3-aminopiperidin-1-yl)-5-(1-(2,2,2-trifluoroethyl)-1H-pyrazol-4-yl)pyridin-2-yl)-2-(2-fluoro-6-methoxyphenyl)pyrimidin-4-amine hydrochloride]
≤ 10	COc1cccc(F)c1-c1nccc(Nc2cc(N3CCC[C@H](N)C3)c(-c3ccc4c(c3)CCC(=O)N4C)cn2)n1 [Example 263, (S)-6-(4-(3-aminopiperidin-1-yl)-6-((2-(2-fluoro-6-methoxyphenyl)pyrimidin-4-yl)amino)pyridin-3-yl)-1-methyl-3,4-dihydroquinolin-2(1H)-one hydrochloride]
≤ 10	COc1cccc(F)c1-c1nc(Nc2cc(N3CCC[C@H](N)C3)c(-c3cnn(C(F)F)c3)cn2)ccc1[N+](=O)[O-] [Example 146, 4-((S)-3-aminopiperidin-1-yl)-5-(1-(difluoromethyl)-1H-pyrazol-4-yl)-N-(6-(2-fluoro-6-methoxyphenyl)-5-nitropyridin-2-yl)pyridin-2-amine hydrochloride]
≤ 10	COc1cccc(F)c1-c1nccc(Nc2cc(N3CCC[C@H](N)C3)c(-c3ccc(F)c(F)c3)cn2)n1 [Example 294, (S)-N-(4-(3-aminopiperidin-1-yl)-5-(3,4-difluorophenyl)pyridin-2-yl)-2-(2-fluoro-6-methoxyphenyl)pyrimidin-4-amine hydrochloride]
≤ 10	COc1cccc(F)c1-c1nc(Nc2cc(N3CCC[C@H](N)C3)c(-c3cnn(C4CCOCC4)c3)cn2)ccc1C(=O)N(C)C [Example 130, 6-((4-((S)-3-aminopiperidin-1-yl)-5-(1-(tetrahydro-2H-pyran-4-yl)-1H-pyrazol-4-yl)pyridin-2-yl)amino)-2-(2-fluoro-6-methoxyphenyl)-N,N-dimethylnicotinamide hydrochloride]
≤ 10	COc1cccc(F)c1-c1nccc(Nc2cc(N3CC[C@H](N)[C@@H](F)C3)c(-c3cnn(C(F)F)c3)cn2)n1 [Example 302, N-(4-((3S,4S)-4-amino-3-fluoropiperidin-1-yl)-5-(1-(difluoromethyl)-1H-pyrazol-4-yl)pyridin-2-yl)-2-(2-fluoro-6-methoxyphenyl)pyrimidin-4-amine hydrochloride]
≤ 10	COc1cccc(F)c1-c1nccc(Nc2cc(N3CCC[C@@H](C(F)F)C3)c(-c3cnn(C(F)F)c3)cn2)n1 [Example 273, (R)-N-(5-(1-(difluoromethyl)-1H-pyrazol-4-yl)-4-(3-(difluoromethyl)piperidin-1-yl)pyridin-2-yl)-2-(2-fluoro-6-methoxyphenyl)pyrimidin-4-amine]
